# In US20060069132A1, “Azolecarboxamide herbicides” (priority 2004, published 2006):
# How the values were obtained:
# giant foxtail = assay: Test A pre-/postemergence herbicide test; assay type: in vivo, Setaria faberi
# In short: (§1)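 Visual injury rating on a 0–100 scale (0 no effect, 100 complete control) versus untreated controls, about ten days after treatment in greenhouse. Pre: directed soil spray onto seeded sandy loam. Post: spray to runoff on plants 2–10 cm tall at one- to two-leaf stage.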
# morningglory [1] = assay: Test A pre-/postemergence herbicide test; assay type: in vivo, Ipomoea spp.
# In short: as §1
# johnsongrass = assay: Test C pre-/postemergence herbicide test; assay type: in vivo, Sorghum halepense
# In short: (§2)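 Pre- and postemergence application, solvent/surfactant formulation; post at 1- to 4-leaf stage (2–18 cm). Greenhouse 12–14 d. Visual rating vs controls, 0 = no effect, 100 = complete control.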
# lambsquarters = assay: Test C pre-/postemergence herbicide test; assay type: in vivo, Chenopodium album
# In short: as §2
# morningglory [2] = assay: Test C pre-/postemergence herbicide test; assay type: in vivo, Ipomoea coccinea; parameters: key to Plant response rating, Morningglory: 0 = no effect, 100 = complete control
# In short: as §2
# velvetleaf = assay: Test C pre-/postemergence herbicide test; assay type: in vivo, Abutilon theophrasti
# In short: as §2
# [3] = tested on: smallflower umbrella sedge; assay: Test C flooded paddy test; assay type: in vivo, Cyperus difformis; conditions: for Plant response rating, Sedge, Umbrella: 500 g ai/ha, visual rating after 12 to 14 days
# barnyardgrass = assay: Test C flooded paddy test; assay type: in vivo, Echinochloa crus-galli; conditions: for Plant response rating, Barnyardgrass: 500 g ai/ha, visual rating after 12 to 14 days
# In short: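 Visual rating, 0 (no effect) to 100 (complete control), vs. controls at 12–14 d in greenhouse. Postemergence: 1–4-leaf plants, 2–18 cm. Paddy: flooded, barnyardgrass at 2-leaf stage.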
# [4] = Postemergence, 500 g ai/ha, 0 to 100 scale, 0 no effect, 100 complete control
# [5] = Postemergence, 2000 g ai/ha, 0 to 100 scale, 0 no effect, 100 complete control
# [6] = Preemergence, 500 g ai/ha, visual rating, 0 to 100 scale (0 no effect, 100 complete control)
# [7] = Preemergence, 2000 g ai/ha, visual rating, 0 to 100 scale (0 no effect, 100 complete control)
# [8] = 125 g ai/ha, scale 0 (no effect) to 100 (complete control), visual, 12 to 14 days, preemergence
# [9] = Postemergence, 500 g ai/ha, scale 0 to 100
# [10] = Postemergence, 250 g ai/ha, scale 0 to 100, 0 no effect, 100 complete control
# [11] = Preemergence, 500 g ai/ha, scale 0 to 100, 0 no effect, 100 complete control
# [12] = postemergence, 125 g ai/ha, scale 0 to 100
# [13] = postemergence, 62 g ai/ha, scale 0 to 100
# [14] = 62 g ai/ha, scale 0 to 100 (0 no effect, 100 complete control)
# [15] = 125 g ai/ha, scale of 0 to 100, 0 is no effect, 100 is complete control
# [16] = 250 g ai/ha, scale of 0 to 100, 0 is no effect, 100 is complete control
# [17] = scale 0 to 100 (0 no effect, 100 complete control)
# [18] = 62 g ai/ha, preemergence, scale 0 to 100
# [19] = 125 g ai/ha, scale 0 to 100 (0 no effect, 100 complete control)
# [20] = 250 g ai/ha, scale 0-100, preemergence
# [21] = 500 g ai/ha, scale 0 to 100 (0 no effect, 100 complete control), visual, 12 to 14 days, preemergence
smiles,measurement,setting,value
CCn1nc(C(C)(C)C)cc1C(=O)Nc1cccc(C(C)=NO)c1 [Compound 108],"Foxtail, Giant plant response rating",giant foxtail; [4],90
same,"Plant response rating, Foxtail, Giant",giant foxtail; [5],100
same,"Foxtail, Giant plant response rating",giant foxtail; [6],95
same,"Foxtail, Giant plant response rating",giant foxtail; [7],100
same,Morningglory plant response rating,morningglory [1]; [4],40
same,"Plant response rating, Morningglory",morningglory [1]; [5],40
same,Morningglory plant response rating,morningglory [1]; [6],30
same,Morningglory plant response rating,morningglory [1]; [7],75
same,"Plant response rating (0 = no effect, 100 = complete control), Johnsongrass","johnsongrass; 62 g ai/ha, preemergence",60
same,"Plant response rating, Johnsongrass",johnsongrass; [8],100
same,Johnsongrass plant response rating,johnsongrass; [9],90
same,"Plant response rating, Johnsongrass",johnsongrass; [10],70
same,Johnsongrass plant response rating,johnsongrass; [11],100
same,"Plant response rating, Johnsongrass",johnsongrass; [12],50
same,"Plant response rating, Johnsongrass",johnsongrass; [13],20
same,"Plant response rating (0 = no effect, 100 = complete control), Lambsquarters","lambsquarters; 62 g ai/ha, preemergence",100
same,"Plant response rating, Lambsquarters",lambsquarters; [8],100
same,Lambsquarters plant response rating,lambsquarters; [9],100
same,"Plant response rating, Lambsquarters",lambsquarters; [10],100
same,Lambsquarters plant response rating,lambsquarters; [11],100
same,"Plant response rating, Lambsquarters",lambsquarters; [12],100
same,"Plant response rating, Lambsquarters",lambsquarters; [13],70
same,"Plant response rating (0 = no effect, 100 = complete control), Morningglory","morningglory [2]; 62 g ai/ha, preemergence",40
same,Morningglory plant response rating,morningglory [2]; [11],90
same,"Plant response rating, Morningglory",morningglory [2]; [12],60
same,"Plant response rating, Morningglory",morningglory [2]; [13],30
same,"Plant response rating, Velvetleaf",velvetleaf; [8],90
same,Velvetleaf plant response rating,velvetleaf; [9],90
same,"Plant response rating, Velvetleaf",velvetleaf; [10],80
same,Velvetleaf plant response rating,velvetleaf; [11],100
same,"Plant response rating, Velvetleaf",velvetleaf; [12],60
same,"Plant response rating, Velvetleaf",velvetleaf; [13],40
same,"Sedge, Umbrella plant response rating",[3]; [14],60
same,"Sedge, Umbrella plant response rating",[3]; [15],80
same,"Sedge, Umbrella plant response rating",[3]; [16],80
same,"Plant response rating, Sedge, Umbrella",[3]; [17],80
same,Barnyardgrass plant response rating,barnyardgrass; [14],30
same,Barnyardgrass plant response rating,barnyardgrass; [15],40
same,Barnyardgrass plant response rating,barnyardgrass; [16],60
same,"Plant response rating, Barnyardgrass",barnyardgrass; [17],70
CC(=NO)c1cccc(NC(=O)c2cc(C(C)(C)C)nn2CC(F)(F)F)c1 [Compound 112],"Foxtail, Giant plant response rating",giant foxtail; [4],20
same,"Plant response rating, Foxtail, Giant",giant foxtail; [5],35
same,"Foxtail, Giant plant response rating",giant foxtail; [6],25
same,"Foxtail, Giant plant response rating",giant foxtail; [7],50
same,Morningglory plant response rating,morningglory [1]; [4],20
same,"Plant response rating, Morningglory",morningglory [1]; [5],15
same,Morningglory plant response rating,morningglory [1]; [6],20
same,Morningglory plant response rating,morningglory [1]; [7],45
same,Johnsongrass plant response rating,johnsongrass; [9],60
same,"Plant response rating, Johnsongrass",johnsongrass; [10],50
same,"Plant response rating, Johnsongrass",johnsongrass; [12],20
same,"Plant response rating, Johnsongrass",johnsongrass; [13],20
same,Lambsquarters plant response rating,lambsquarters; [9],100
same,"Plant response rating, Lambsquarters",lambsquarters; [10],100
same,"Plant response rating, Lambsquarters",lambsquarters; [12],20
same,"Plant response rating, Lambsquarters",lambsquarters; [13],20
same,Morningglory plant response rating,morningglory [2]; [9],100
same,"Plant response rating, Morningglory",morningglory [2]; [10],70
same,"Plant response rating, Morningglory",morningglory [2]; [12],20
same,"Plant response rating, Morningglory",morningglory [2]; [13],0
same,Velvetleaf plant response rating,velvetleaf; [9],90
same,"Plant response rating, Velvetleaf",velvetleaf; [10],80
same,"Plant response rating, Velvetleaf",velvetleaf; [12],0
same,"Plant response rating, Velvetleaf",velvetleaf; [13],0
same,"Sedge, Umbrella plant response rating",[3]; [14],0
same,"Sedge, Umbrella plant response rating",[3]; [15],0
same,"Sedge, Umbrella plant response rating",[3]; [16],25
same,"Plant response rating, Sedge, Umbrella",[3]; [17],50
same,Barnyardgrass plant response rating,barnyardgrass; [14],0
same,Barnyardgrass plant response rating,barnyardgrass; [15],0
same,Barnyardgrass plant response rating,barnyardgrass; [16],10
same,"Plant response rating, Barnyardgrass",barnyardgrass; [17],30
CCNC(=O)c1ccnc(NC(=O)c2cc(C(C)(C)C)nn2CC)c1 [Compound 152],"Plant response rating, Johnsongrass",johnsongrass; [18],80
same,"Plant response rating, Johnsongrass",johnsongrass; [8],100
same,Johnsongrass plant response rating,johnsongrass; [11],100
same,"Plant response rating, Lambsquarters",lambsquarters; [18],100
same,"Plant response rating, Lambsquarters",lambsquarters; [8],100
same,Lambsquarters plant response rating,lambsquarters; [11],100
same,"Plant response rating, Morningglory",morningglory [2]; [18],20
same,"Plant response rating, Morningglory",morningglory [2]; [8],80
same,Morningglory plant response rating,morningglory [2]; [11],100
same,"Plant response rating, Velvetleaf",velvetleaf; [18],0
same,"Plant response rating, Velvetleaf",velvetleaf; [8],100
same,Velvetleaf plant response rating,velvetleaf; [11],100
same,"Sedge, Umbrella plant response rating",[3]; [14],80
same,"Sedge, Umbrella plant response rating",[3]; [19],80
same,"Sedge, Umbrella plant response rating",[3]; [16],85
same,"Plant response rating, Sedge, Umbrella",[3]; [17],85
same,Barnyardgrass plant response rating,barnyardgrass; [14],40
same,Barnyardgrass plant response rating,barnyardgrass; [15],75
same,Barnyardgrass plant response rating,barnyardgrass; [16],75
same,"Plant response rating, Barnyardgrass",barnyardgrass; [17],85
Cc1nn(C(C)(C)C)nc1C(=O)Nc1cccc(C(=O)N(C)C)c1 [Compound 391],"Plant response rating, Johnsongrass",johnsongrass; [18],100
same,"Plant response rating (0 = no effect, 100 = complete control), Johnsongrass","johnsongrass; 125 g ai/ha, preemergence",100
same,"Plant response rating, Johnsongrass",johnsongrass; [20],100
same,"Plant response rating, Johnsongrass",johnsongrass; [21],100
same,"Plant response rating, Lambsquarters",lambsquarters; [18],100
same,"Plant response rating (0 = no effect, 100 = complete control), Lambsquarters","lambsquarters; 125 g ai/ha, preemergence",100
same,"Plant response rating, Lambsquarters",lambsquarters; [20],100
same,"Plant response rating, Lambsquarters",lambsquarters; [21],100
same,"Plant response rating, Morningglory",morningglory [2]; [18],100
same,"Plant response rating (0 = no effect, 100 = complete control), Morningglory","morningglory [2]; 125 g ai/ha, preemergence",100
same,"Plant response rating, Morningglory",morningglory [2]; [20],100
same,"Plant response rating, Morningglory",morningglory [2]; [21],100
same,"Plant response rating, Velvetleaf",velvetleaf; [18],100
same,"Plant response rating (0 = no effect, 100 = complete control), Velvetleaf","velvetleaf; 125 g ai/ha, preemergence",100
same,"Plant response rating, Velvetleaf",velvetleaf; [20],100
same,"Plant response rating, Velvetleaf",velvetleaf; [21],100
same,"Sedge, Umbrella plant response rating","[3]; 62 g ai/ha, scale 0 to 100",80
same,"Sedge, Umbrella plant response rating",[3]; [19],80
same,"Sedge, Umbrella plant response rating",[3]; [16],85
same,"Plant response rating, Sedge, Umbrella",[3]; [17],95
same,Barnyardgrass plant response rating,barnyardgrass; [14],55
same,Barnyardgrass plant response rating,barnyardgrass; [19],85
same,Barnyardgrass plant response rating,barnyardgrass; [16],90
same,"Plant response rating, Barnyardgrass",barnyardgrass; [17],95
